# Key:
# [1] = molecular target: T1, wt human JAK1, catalytic site (Homo sapiens, UniProt P23458); assay: HTRF KinEASE assay, JAK1; format: biochemical; details: 2.5 μM ATP; read-out: IC50, Activity Toward JAK1
# T1 construct: wt human JAK1, catalytic site; purchased ThermoFisher
# Method in brief: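 Compounds in DMSO dilution were mixed with kinase, biotin-TK substrate and ATP and reacted for ≥30 min at room temperature. Detection reagents (antibody, streptavidin-XL665) were read 60 min later as HTRF, with emission ratios analysed per KinEASE protocol.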
# [2] = molecular target: T2, wt human LRRK2, catalytic site (Homo sapiens, UniProt Q5S007); assay: TR-FRET LanthaScreen Eu Kinase Binding Assay, LRRK2 wt; details: one range stated for wt and G2019, read-out: IC50, Activity Toward LRRK2(Wt)
# T2 construct: 5 nM wt human LRRK2, catalytic site; purchased ThermoFisher
# Protocol: (§1) The basic protocol for TR-FRET LanthaScreen Eu Kinase Binding Assay inhibitor studies were performed as follows. LanthaScreen Kinase Binding Assays (ThermoFisher/USA) to evaluate inhibitors were performed by addition of 5 μL of test compound in corresponding DMSO dilutions/5 μl of kinase/antibody mixture, 5 μL of tracer into 384 well small volume plates. After incubation for 1 hour at room temperature, plates were read. Data analysis of emission ratios was according LanthaScreen Eu Kinase Binding Assay protocol.
# (§2) Kinase and assay components were adjusted to final concentrations according to kit protocol. For LRRK2: 5 nM wt human LRRK2, catalytic site, or G2019S human LRRK2, catalytic site (ThermoFisher/USA), 2 nM Eu-Anti-GST Antibody, 10 nM Kinase Tracer 236 in 1× Kinase Buffer A. For NUAK1: 8 nM wt human NUAK1, full length (ThermoFisher/USA), 2 nM Eu-Anti-His Antibody, 5 nM Kinase Tracer 236 in 1× Kinase Buffer A.
# [3] = molecular target: T3, G2019S human LRRK2, catalytic site (Homo sapiens, UniProt Q5S007, G2019S); assay: TR-FRET LanthaScreen Eu Kinase Binding Assay, LRRK2 G2019S; details: LRRK2(G2019); one range stated for wt and G2019; read-out: IC50, Activity Toward LRRK2(G2019)
# T3 construct: G2019S human LRRK2, catalytic site; purchased ThermoFisher
# Protocol: as §1, §2
# [4] = molecular target: T4, wt human TYK2, catalytic site (Homo sapiens, UniProt P29597); assay: HTRF KinEASE assay, TYK2; format: biochemical; details: 1 μM ATP; read-out: IC50, Activity Toward TYK2
# T4 construct: wt human TYK2, catalytic site; purchased SignalChem
# T4 sequence (P29597 897-1176 limits assumed): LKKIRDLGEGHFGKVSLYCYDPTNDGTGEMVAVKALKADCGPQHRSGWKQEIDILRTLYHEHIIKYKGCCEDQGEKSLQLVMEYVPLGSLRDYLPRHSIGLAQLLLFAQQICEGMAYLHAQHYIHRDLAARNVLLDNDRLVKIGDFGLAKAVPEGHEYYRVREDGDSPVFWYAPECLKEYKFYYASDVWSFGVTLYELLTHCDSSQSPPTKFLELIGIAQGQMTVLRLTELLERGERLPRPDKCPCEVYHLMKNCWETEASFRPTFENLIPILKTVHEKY
# Method in brief: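 Kinase reaction run at room temperature for at least 30 min: 2 nM TYK2 with 1 μM ATP, or 1 nM JAK2 with 100 μM ATP, each with 1 μM biotin-TK substrate. Phosphorylation detected by HTRF (60 min antibody/XL665) and evaluated from emission ratios.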
# T2 sequence (Q5S007 970-2527 limits assumed): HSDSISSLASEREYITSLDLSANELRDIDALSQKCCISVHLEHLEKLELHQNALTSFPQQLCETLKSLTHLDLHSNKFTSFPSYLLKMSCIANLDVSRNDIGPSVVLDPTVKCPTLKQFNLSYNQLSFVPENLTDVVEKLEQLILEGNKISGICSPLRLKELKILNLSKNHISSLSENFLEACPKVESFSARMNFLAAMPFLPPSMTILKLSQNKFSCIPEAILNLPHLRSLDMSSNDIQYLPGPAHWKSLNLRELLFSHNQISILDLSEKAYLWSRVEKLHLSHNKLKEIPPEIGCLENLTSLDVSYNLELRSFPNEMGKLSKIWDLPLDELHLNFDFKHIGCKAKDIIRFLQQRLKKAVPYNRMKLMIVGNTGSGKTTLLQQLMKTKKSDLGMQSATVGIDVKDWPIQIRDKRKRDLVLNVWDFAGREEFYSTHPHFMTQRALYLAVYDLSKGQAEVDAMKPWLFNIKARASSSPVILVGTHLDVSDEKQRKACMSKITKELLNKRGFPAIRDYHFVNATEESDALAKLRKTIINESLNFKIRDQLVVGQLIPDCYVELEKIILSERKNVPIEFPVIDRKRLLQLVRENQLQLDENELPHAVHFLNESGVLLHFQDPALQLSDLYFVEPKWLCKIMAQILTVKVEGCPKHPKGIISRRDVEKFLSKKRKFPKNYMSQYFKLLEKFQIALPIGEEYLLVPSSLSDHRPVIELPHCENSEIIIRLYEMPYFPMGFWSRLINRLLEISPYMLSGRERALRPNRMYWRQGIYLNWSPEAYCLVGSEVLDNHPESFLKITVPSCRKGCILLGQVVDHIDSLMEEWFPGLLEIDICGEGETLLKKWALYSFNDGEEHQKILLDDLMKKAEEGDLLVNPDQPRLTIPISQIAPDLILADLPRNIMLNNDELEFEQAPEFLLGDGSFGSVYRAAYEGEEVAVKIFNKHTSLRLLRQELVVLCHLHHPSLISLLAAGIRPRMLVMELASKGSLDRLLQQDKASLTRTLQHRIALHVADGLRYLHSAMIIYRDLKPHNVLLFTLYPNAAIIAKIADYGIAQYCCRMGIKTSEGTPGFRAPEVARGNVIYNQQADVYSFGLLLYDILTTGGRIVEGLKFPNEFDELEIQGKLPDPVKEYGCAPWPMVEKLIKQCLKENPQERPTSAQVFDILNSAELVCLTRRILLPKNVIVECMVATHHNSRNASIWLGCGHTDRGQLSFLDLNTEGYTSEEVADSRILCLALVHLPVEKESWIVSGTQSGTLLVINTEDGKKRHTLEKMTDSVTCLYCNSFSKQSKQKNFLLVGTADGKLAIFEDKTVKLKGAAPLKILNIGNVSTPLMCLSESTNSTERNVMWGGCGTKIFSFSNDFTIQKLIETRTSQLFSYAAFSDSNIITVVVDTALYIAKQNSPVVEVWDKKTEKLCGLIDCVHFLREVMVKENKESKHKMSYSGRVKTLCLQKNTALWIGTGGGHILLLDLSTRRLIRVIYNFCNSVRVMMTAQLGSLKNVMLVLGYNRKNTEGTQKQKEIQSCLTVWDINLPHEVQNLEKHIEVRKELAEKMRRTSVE
# T3 sequence (Q5S007 970-2527 G2019S limits assumed): as the sequence (Q5S007 970-2527 limits assumed) above, with G1050S counted along it
# T1 sequence (P23458 875-1153 limits assumed): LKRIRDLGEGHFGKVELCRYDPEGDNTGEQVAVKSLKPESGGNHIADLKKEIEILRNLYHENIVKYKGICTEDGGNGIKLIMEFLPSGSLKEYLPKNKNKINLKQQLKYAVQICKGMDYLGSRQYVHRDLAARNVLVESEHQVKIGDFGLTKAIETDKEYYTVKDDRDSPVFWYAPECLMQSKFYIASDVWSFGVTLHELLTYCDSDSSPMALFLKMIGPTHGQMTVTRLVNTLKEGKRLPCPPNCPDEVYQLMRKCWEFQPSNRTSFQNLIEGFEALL
SMILES,IC50 [1] [nM],IC50 [2] [nM],IC50 [3] [nM],IC50 [4] [nM]
"NC(=O)c1nn(-c2c(Cl)cccc2Cl)cc1Nc1ccc(C(=O)N2CC[C@H](F)C2)nc1 [compound 355, (S)-1-(2,6-dichlorophenyl)-4-((6-(3-fluoropyrrolidine-1-carbonyl)pyridin-3-yl)amino)-1H-pyrazole-3-carboxamide]",100 to 1000,100 to 1000,100 to 1000,10 to 100
"N#Cc1cn(CCO)c(-c2ccc(Nc3cn(-c4c(Cl)cccc4Cl)nc3C(N)=O)cn2)n1 [compound 387, 4-((6-(4-cyano-1-(2-hydroxyethyl)-1H-imidazol-2-yl)pyridin-3-yl)amino)-1-(2,6-dichlorophenyl)-1H-pyrazole-3-carboxamide]",10 to 100,100 to 1000,100 to 1000,10 to 100
"CCNC(=O)c1ccc(Nc2cn(-c3c(F)cccc3Cl)nc2C(N)=O)cc1 [compound 40, 1-(2-chloro-6-fluorophenyl)-4-((4-(ethylcarbamoyl)phenyl)amino)-1H-pyrazole-3-carboxamide]",10 to 100,100 to 1000,100 to 1000,10 to 100
"COCc1nc(C(F)(F)F)nn1-c1ccc(Nc2cn(-c3c(F)cccc3F)nc2C(N)=O)cc1 [compound 299, 1-(2,6-difluorophenyl)-4-((4-(5-(methoxymethyl)-3-(trifluoromethyl)-1H-1,2,4-triazol-1-yl)phenyl)amino)-1H-pyrazole-3-carboxamide]",100 to 1000,100 to 1000,100 to 1000,< 10
"NC(=O)c1nn(-c2c(Cl)cccc2Cl)cc1Nc1ccc(C(=O)N2CC[C@H](F)C2)cc1 [compound 316, (S)-1-(2,6-dichlorophenyl)-4-((4-(3-fluoropyrrolidine-1-carbonyl)phenyl)amino)-1H-pyrazole-3-carboxamide]",10 to 100,100 to 1000,100 to 1000,< 10
"CN1CCN(S(=O)(=O)c2ccc(Nc3cn(-c4c(Cl)cccc4Cl)nc3C(N)=O)cc2)CC1 [compound 85, 1-(2,6-dichlorophenyl)-4-((4-((4-methylpiperazin-1-yl)sulfonyl)phenyl)amino)-1H-pyrazole-3-carboxamide]",10 to 100,100 to 1000,100 to 1000,< 10
"NC(=O)c1nn(-c2c(Cl)cccc2Cl)cc1Nc1ccc(C(=O)N2CCC(F)C2)cc1 (stereo not shown) [compound 246, 1-(2,6-dichlorophenyl)-4-((4-(3-fluoropyrrolidine-1-carbonyl)phenyl)amino)-1H-pyrazole-3-carboxamide]",10 to 100,100 to 1000,100 to 1000,10 to 100
"CCn1nc(C(F)(F)F)nc1-c1ccc(Nc2cn(-c3c(F)cccc3F)nc2C(N)=O)cc1 [compound 302, 1-(2,6-difluorophenyl)-4-((4-(1-ethyl-3-(trifluoromethyl)-1H-1,2,4-triazol-5-yl)phenyl)amino)-1H-pyrazole-3-carboxamide]",10 to 100,100 to 1000,100 to 1000,< 10
"CC(C)(C)OC(=O)N1CCCC(NC(=O)c2ccc(Nc3cn(-c4c(F)cccc4Cl)nc3C(N)=O)cc2)C1 (stereo not shown) [compound 37, tert-butyl_3-(4-((3-carbamoyl-1-(2-chloro-6-fluorophenyl)-1H-pyrazol-4-yl)amino)benzamido)piperidine-1-carboxylate]",100 to 1000,100 to 1000,100 to 1000,100 to 1000
"NC(=O)c1nn(-c2c(Cl)cccc2Cl)cc1Nc1ccc(C(=O)N2CC3(CCC3)C2)cc1 [compound 46, 4-((4-(2-azaspiro[3.3]heptane-2-carbonyl)phenyl)amino)-1-(2,6-dichlorophenyl)-1H-pyrazole-3-carboxamide]",< 10,100 to 1000,100 to 1000,< 10

# The next lines start with the values.
IC50 [1] [nM],IC50 [2] [nM],IC50 [3] [nM],IC50 [4] [nM],SMILES
< 10,100 to 1000,100 to 1000,10 to 100,"Cc1cncc2nnc(-c3ccc(Nc4cn(-c5c(Cl)cccc5Cl)nc4C(N)=O)cn3)n12 [compound 436, 1-(2,6-dichlorophenyl)-4-((6-(5-methyl-[1,2,4]triazolo[4,3-a]pyrazin-3-yl)pyridin-3-yl)amino)-1H-pyrazole-3-carboxamide]"
100 to 1000,100 to 1000,100 to 1000,100 to 1000,"Cc1ccncc1-c1ccc(Nc2cn(-c3c(Cl)cccc3Cl)nc2C(N)=O)cn1 [compound 394, 1-(2,6-dichlorophenyl)-4-((4′-methyl-[2,3′-bipyridin]-5-yl)amino)-1H-pyrazole-3-carboxamide]"
10 to 100,100 to 1000,100 to 1000,< 10,"Cn1cc(C(F)(F)F)nc1-c1ccc(Nc2cn(-c3c(F)cccc3Cl)nc2C(N)=O)cc1 [compound 305, 1-(2-chloro-6-fluorophenyl)-4-((4-(1-methyl-4-(trifluoromethyl)-1H-imidazol-2-yl)phenyl)amino)-1H-pyrazole-3-carboxamide]"
10 to 100,100 to 1000,100 to 1000,< 10,"NC(=O)c1nn(-c2c(Cl)cccc2Cl)cc1Nc1ccc(C(=O)N2CC(O)C2)cc1 [compound 426, 1-(2,6-dichlorophenyl)-4-((4-(3-hydroxyazetidine-1-carbonyl)phenyl)amino)-1H-pyrazole-3-carboxamide]"
100 to 1000,100 to 1000,100 to 1000,10 to 100,"CC(C)n1cnnc1-c1ccc(Nc2cn(-c3c(Cl)cccc3Cl)nc2C(N)=O)cn1 [compound 400, 1-(2,6-dichlorophenyl)-4-((6-(4-isopropyl-4H-1,2,4-triazol-3-yl)pyridin-3-yl)amino)-1H-pyrazole-3-carboxamide]"
10 to 100,100 to 1000,100 to 1000,< 10,"CCc1nnnn1-c1ccc(Nc2cn(-c3c(Cl)cccc3Cl)nc2C(N)=O)cc1 [compound 259, 1-(2,6-dichlorophenyl)-4-((4-(5-ethyl-1H-tetrazol-1-yl)phenyl)amino)-1H-pyrazole-3-carboxamide]"
10 to 100,100 to 1000,100 to 1000,10 to 100,"NC(=O)c1nn(-c2c(Cl)cccc2Cl)cc1Nc1ccc(-c2cccnn2)cc1 [compound 49, 1-(2,6-dichlorophenyl)-4-((4-(pyridazin-3-yl)phenyl)amino)-1H-pyrazole-3-carboxamide]"
10 to 100,100 to 1000,100 to 1000,100 to 1000,"Cc1ncn(C)c1-c1ccc(Nc2cn(-c3c(Cl)cccc3Cl)nc2C(N)=O)cc1 [compound 53, 1-(2,6-dichlorophenyl)-4-((4-(1,4-dimethyl-1H-imidazol-5-yl)phenyl)amino)-1H-pyrazole-3-carboxamide]"
10 to 100,100 to 1000,100 to 1000,10 to 100,"Cc1cccc2nnc(-c3ccc(Nc4cn(-c5c(Cl)cccc5Cl)nc4C(N)=O)cc3)n12 [compound 376, 1-(2,6-dichlorophenyl)-4-((4-(5-methyl-[1,2,4]triazolo[4,3-a]pyridin-3-yl)phenyl)amino)-1H-pyrazole-3-carboxamide]"
10 to 100,100 to 1000,100 to 1000,10 to 100,"CCn1cnnc1-c1ccc(Nc2cn(-c3c(Cl)ccc(F)c3Cl)nc2C(N)=O)cc1 [compound 418, 1-(2,6-dichloro-3-fluorophenyl)-4-((4-(4-ethyl-4H-1,2,4-triazol-3-yl)phenyl)amino)-1H-pyrazole-3-carboxamide]"
10 to 100,100 to 1000,100 to 1000,10 to 100,"NC(=O)c1nn(-c2c(Cl)cccc2Cl)cc1Nc1ccc(-c2ccnnc2)cc1 [compound 321, 1-(2,6-dichlorophenyl)-4-((4-(pyridazin-4-yl)phenyl)amino)-1H-pyrazole-3-carboxamide]"
10 to 100,100 to 1000,100 to 1000,10 to 100,"NC(=O)c1nn(-c2c(Cl)cccc2Cl)cc1Nc1ccc(C(=O)NCCF)cc1 [compound 421, 1-(2,6-dichlorophenyl)-4-((4-((2-fluoroethyl)carbamoyl)phenyl)amino)-1H-pyrazole-3-carboxamide]"

# From US20230373985A1 (Origenis Gmbh, priority 2020, published 2023)
